Values quoted from earlier work, collected in patent US20100172972A1, “ENTERIC COATED PHARMACEUTICAL COMPOSITIONS” (priority 2007, published 2010).
Where a name gives a salt, the structure may show the parent alone.

Legend:
[1] = not given; remark: listed apart in the source

Row | Compound | drug in the dosage hydrolyzed to 1-naphthol (pH 1.0) | drug in the dosage degrades to 1-naphthol (pH 2.0, in one hour) | time for 10% degradation (pH 4.0) | solubility in water [1]
1 | CNCC[C@H](Oc1cccc2ccccc12)c1cccs1 [Duloxetine hydrochloride] | 50% | 10% | up to 63 hours | 
2 | CNCC[C@H](Oc1cccc2ccccc12)c1cccs1 [Duloxetine] |  |  |  | slightly soluble in water
